Test results: US11542235B2, “Herbicidal 3-azaspiro[5.5] undecane-8, 10-dione compounds” (SYNGENTA PARTICIPATIONS AG, priority 2018, dated 2023)

Legend:
Assay type in all cases: in vivo
Setaria faberi (SETFA) = test: Glasshouse herbicidal test, pre- and post-emergence, Setaria faberi; conditions: 250 g/h, evaluated after 13 days, five point scale; for percentage damage caused to the plant, SETFA POST: post-emergence; for percentage damage caused to the plant, SETFA PRE: pre-emergence
Method: (§1) Seeds of a variety of test species are sown in standard soil in pots (Lolium perenne (LOLPE), Setaria faberi (SETFA), Alopecurus myosuroides (ALOMY), Echinochloa crus-galli (ECHCG), Avena fatua (AVEFA)). After cultivation for one day (pre-emergence) or after 8 days cultivation (post-emergence) under controlled conditions in a glasshouse (at 24/16° C., day/night; 14 hours light; 65% humidity), the plants are sprayed with an aqueous spray solution derived from the formulation of the technical active ingredient in acetone/water (50:50) solution containing 0.5% Tween 20 (polyoxyethelyene sorbitan monolaurate, CAS RN 9005-64-5). Compounds are applied at […]. The test plants are then grown in a glasshouse under controlled conditions in a glasshouse (at 24/16° C., day/night; 14 hours light; 65% humidity) and watered twice daily. After 13 days for pre and post-emergence, the test is evaluated for the percentage damage caused to the plant. The biological activities are shown in the following table on a five point scale (5=80-100%; 4=60-79%; 3=40-59%; 2=20-39%; 1=0-19%).

[1] = system: Echinochloa crus-galli (ECHCG); test: Glasshouse herbicidal test, pre- and post-emergence, Echinochloa crus-galli; conditions: 250 g/h, evaluated after 13 days, five point scale; for percentage damage caused to the plant, ECHCG POST: post-emergence; for percentage damage caused to the plant, ECHCG PRE: pre-emergence
Method: as §1

Lolium perenne (LOLPE) = test: Glasshouse herbicidal test, pre- and post-emergence, Lolium perenne; conditions: 250 g/h, evaluated after 13 days, five point scale; for percentage damage caused to the plant, LOLPE POST: post-emergence; for percentage damage caused to the plant, LOLPE PRE: pre-emergence
Method: as §1

[2] = system: Alopecurus myosuroides (ALOMY); test: Glasshouse herbicidal test, pre- and post-emergence, Alopecurus myosuroides; conditions: 250 g/h, evaluated after 13 days, five point scale; for percentage damage caused to the plant, ALOMY POST: post-emergence; for percentage damage caused to the plant, ALOMY PRE: pre-emergence
Method: as §1

Avena fatua (AVEFA) = test: Glasshouse herbicidal test, pre- and post-emergence, Avena fatua; conditions: 250 g/h, evaluated after 13 days, five point scale; for percentage damage caused to the plant, AVEFA POST: post-emergence; for percentage damage caused to the plant, AVEFA PRE: pre-emergence
Method: as §1

CC#Cc1cc(C)c(C2=C(O)CC3(CCN(C(C)=O)CC3)CC2=O)c(C)c1 [Compound A17]
5 (5=80-100%): percentage damage caused to the plant, SETFA POST (Setaria faberi (SETFA)) | percentage damage caused to the plant, SETFA PRE (Setaria faberi (SETFA)) | percentage damage caused to the plant, ECHCG POST [1] | percentage damage caused to the plant, ECHCG PRE [1] | percentage damage caused to the plant, LOLPE POST (Lolium perenne (LOLPE)) | percentage damage caused to the plant, LOLPE PRE (Lolium perenne (LOLPE)) | percentage damage caused to the plant, ALOMY POST [2] | percentage damage caused to the plant, ALOMY PRE [2] | percentage damage caused to the plant, AVEFA POST (Avena fatua (AVEFA)) | percentage damage caused to the plant, AVEFA PRE (Avena fatua (AVEFA))

CC#Cc1cc(C)c(C2=C([O-])CC3(CCN(C(C)=O)CC3)CC2=O)c(C)c1.[Na+] [Compound A18]
5 (5=80-100%): percentage damage caused to the plant, SETFA POST (Setaria faberi (SETFA)) | percentage damage caused to the plant, SETFA PRE (Setaria faberi (SETFA)) | percentage damage caused to the plant, ECHCG POST [1] | percentage damage caused to the plant, ECHCG PRE [1] | percentage damage caused to the plant, LOLPE POST (Lolium perenne (LOLPE)) | percentage damage caused to the plant, LOLPE PRE (Lolium perenne (LOLPE)) | percentage damage caused to the plant, ALOMY POST [2] | percentage damage caused to the plant, ALOMY PRE [2] | percentage damage caused to the plant, AVEFA POST (Avena fatua (AVEFA)) | percentage damage caused to the plant, AVEFA PRE (Avena fatua (AVEFA))

CC#Cc1cc(C)c(C2C(=O)CC3(CCN(C(=O)C(F)F)CC3)CC2=O)c(OC)c1 [Compound A19]
5 (5=80-100%): percentage damage caused to the plant, SETFA POST (Setaria faberi (SETFA)) | percentage damage caused to the plant, SETFA PRE (Setaria faberi (SETFA)) | percentage damage caused to the plant, ECHCG PRE [1] | percentage damage caused to the plant, LOLPE POST (Lolium perenne (LOLPE)) | percentage damage caused to the plant, LOLPE PRE (Lolium perenne (LOLPE)) | percentage damage caused to the plant, ALOMY POST [2] | percentage damage caused to the plant, ALOMY PRE [2] | percentage damage caused to the plant, AVEFA POST (Avena fatua (AVEFA)) | percentage damage caused to the plant, AVEFA PRE (Avena fatua (AVEFA))

CC#Cc1cc(C)c(C2C(=O)CC3(CCN(C(=O)C(C)(C)C)CC3)CC2=O)c(OC)c1 [Compound A20]
5 (5=80-100%): percentage damage caused to the plant, SETFA POST (Setaria faberi (SETFA)) | percentage damage caused to the plant, SETFA PRE (Setaria faberi (SETFA)) | percentage damage caused to the plant, ECHCG POST [1] | percentage damage caused to the plant, ECHCG PRE [1] | percentage damage caused to the plant, LOLPE POST (Lolium perenne (LOLPE)) | percentage damage caused to the plant, LOLPE PRE (Lolium perenne (LOLPE)) | percentage damage caused to the plant, ALOMY POST [2] | percentage damage caused to the plant, ALOMY PRE [2] | percentage damage caused to the plant, AVEFA POST (Avena fatua (AVEFA)) | percentage damage caused to the plant, AVEFA PRE (Avena fatua (AVEFA))

CC#Cc1cc(C)c(C2C(=O)CC3(CCN(C(=O)C(C)F)CC3)CC2=O)c(C)c1 (stereo not shown) [Compound A21]
5 (5=80-100%): percentage damage caused to the plant, SETFA POST (Setaria faberi (SETFA)) | percentage damage caused to the plant, SETFA PRE (Setaria faberi (SETFA)) | percentage damage caused to the plant, ECHCG POST [1] | percentage damage caused to the plant, ECHCG PRE [1] | percentage damage caused to the plant, LOLPE POST (Lolium perenne (LOLPE)) | percentage damage caused to the plant, LOLPE PRE (Lolium perenne (LOLPE)) | percentage damage caused to the plant, ALOMY POST [2] | percentage damage caused to the plant, ALOMY PRE [2] | percentage damage caused to the plant, AVEFA POST (Avena fatua (AVEFA)) | percentage damage caused to the plant, AVEFA PRE (Avena fatua (AVEFA))
